From US6440948B1, “Thiophene A2A receptor agonists” (CV Therapeutics, Inc., priority 1999, dated 2002)

Target: T1, A2A receptor (Sus scrofa, UniProt K9IW67)
T1 construct: from tissue; host or cells: pig striatum membranes
Test: affinity for the A2A receptor in a pig striatum membrane prep (displacement of tritiated ZM 241385)
Type: binding
Details: pig striatal membranes, 2 nM tritiated antagonist ZM 241385, 23° C. for 2h, greater than 5 point curve
Experimental: Compounds of this invention were assayed to determine their affinity for the A2A receptor in a pig striatum membrane prep. Briefly, 0.2 mg of pig striatal membranes were treated with adenosine deaminase (2 U/mL) and 50 mM Tris buffer (pH=7,4) followed by mixing. To the pig membranes was added […] of serially diluted DMSO stock solution of the compounds of this invention at concentrations ranging from 10 nM to 100 μM or the control received […] of DMSO alone, then the: antagonist ZM 241385 in Tris buffer (50 mM, pH of 7.4) was added to achieve a final concentration of 2 nM . After incubation at 23° C. for 2h, then the solutions were filtered using a membrane harvester using multiple washing of the membranes (3x). The filter disks were counted in scintillation cocktail to determine the amount of displacement of tritiated ZM displaced by the compounds of this invention. Greater than a 5 point curve was used to generate Ki's. Compound 13 has a Ki between 1,000 and 10,000 nM.

T1 sequence (K9IW67 1-409): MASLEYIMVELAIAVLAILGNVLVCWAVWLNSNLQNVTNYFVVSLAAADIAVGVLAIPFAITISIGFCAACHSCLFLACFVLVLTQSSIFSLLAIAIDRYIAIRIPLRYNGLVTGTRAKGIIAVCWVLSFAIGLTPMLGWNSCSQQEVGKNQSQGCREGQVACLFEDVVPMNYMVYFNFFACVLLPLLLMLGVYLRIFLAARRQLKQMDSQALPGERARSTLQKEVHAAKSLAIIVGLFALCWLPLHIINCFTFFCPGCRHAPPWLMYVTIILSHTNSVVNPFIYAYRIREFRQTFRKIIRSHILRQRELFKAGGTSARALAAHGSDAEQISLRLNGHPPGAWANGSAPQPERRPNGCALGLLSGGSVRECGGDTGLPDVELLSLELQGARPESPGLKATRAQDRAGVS

Molecule `Cc1ccc(-c2nc(N)c3ncn([C@@H]4O[C@H](CO)[C@@H](O)[C@H]4O)c3n2)s1` [Compound 13, (4S,2R,3R,5R)-2-[6-Amino-2-(5-methyl(2-thienyl))purin-9-yl]-5-(hydroxymethyl)oxolane-3,4-diol] has a Ki of 1 to 10 µM.
